Experimental data as given in patent US9914710B2, “Bicyclic arylcarboxylic acid amides and their use as herbicides” (BAYER CROPSCIENCE AKTIENGESELLSCHAFT, priority 2014, dated 2018).

Columns and labels:
Test in all cases: Post-emergence herbicidal action against harmful plants
Type in all cases: in vivo
Conditions in all cases: one-leaf stage, application rate 80 g/ha, assessed visually after about 3 weeks vs untreated controls
[1] = system: Viola tricolor
Method: (§1) Seeds of monocotyledonous and dicotyledonous weed and crop plants are laid out in sandy loam in wood-fiber pots, covered with soil and cultivated in a greenhouse under good growth conditions. 2 to 3 weeks after sowing, the test plants are treated at the one-leaf stage. The compounds of the invention, formulated in the form of wettable powders (WP) or as emulsion concentrates (EC), are then sprayed onto the green parts of the plants in the form of an aqueous suspension or emulsion at a water application rate equating to 600 to 800 I/ha, with addition of 0.2% wetting agent. After the test plants have been left to stand in the greenhouse under optimal growth conditions for about 3 weeks, the action of the preparations is assessed visually in comparison to untreated controls (herbicidal action in percent (%): 100% activity=the plants have died, 0% activity=like control plants). For example, compounds no. 1-18, 1-19, 1-20, 1-21, 1-23, 1-25, 1-26, 1-27, 1-30, 1-32, 1-51, 1-52, 1-53, 1-63, 1-65, 1-69, 1-70, 1-75, 1-76, 1-77, 1-78, 1-79, 1-80, 1-84, 2-18, 2-20 and 4-18 at an application rate of 80 g/ha each have 100% efficacy against Stellaria media, Veronica persica and Viola tricolor.

[2] = system: Stellaria media
Method: as §1

[3] = system: Veronica persica
Method: as §1

CCS(=O)(=O)c1c(Cl)c(C(=O)Nc2nnnn2C)cc2c1CCC2 [1-23]
100%: efficacy (herbicidal action in percent) against Viola tricolor [1] | efficacy (herbicidal action in percent) against Stellaria media [2] | efficacy (herbicidal action in percent) against Veronica persica [3]

Cn1nnnc1NC(=O)c1cc2c(c(S(C)(=O)=O)c1Cl)C(=O)CC2 [1-32]
100%: efficacy (herbicidal action in percent) against Viola tricolor [1] | efficacy (herbicidal action in percent) against Stellaria media [2] | efficacy (herbicidal action in percent) against Veronica persica [3]

CSc1c(Cl)c(C(=O)Nc2nnnn2C)cc2c1CCCC2 [1-51, N-(1-methyltetrazol-5-yl)-3-chloro-4-(methylthio)-5,6,7,8-tetrahydronaphthalene-2-carboxamide]
100%: efficacy (herbicidal action in percent) against Viola tricolor [1] | efficacy (herbicidal action in percent) against Stellaria media [2] | efficacy (herbicidal action in percent) against Veronica persica [3]

Cn1nnnc1NC(=O)c1cc2c(c(S(C)(=O)=O)c1Cl)CCCC2 [1-53]
100%: efficacy (herbicidal action in percent) against Viola tricolor [1] | efficacy (herbicidal action in percent) against Stellaria media [2] | efficacy (herbicidal action in percent) against Veronica persica [3]

Cn1nnnc1NC(=O)c1cc2c(c([S+](C)[O-])c1Br)CCC2 (racemic) [1-76]
100%: efficacy (herbicidal action in percent) against Viola tricolor [1] | efficacy (herbicidal action in percent) against Stellaria media [2] | efficacy (herbicidal action in percent) against Veronica persica [3]

CCSc1c(Br)c(C(=O)Nc2nnnn2CC)cc2c1CCC2 [1-84]
100%: efficacy (herbicidal action in percent) against Viola tricolor [1] | efficacy (herbicidal action in percent) against Stellaria media [2] | efficacy (herbicidal action in percent) against Veronica persica [3]

Cn1nnnc1NC(=O)c1cc2c(c(S(C)(=O)=O)c1Cl)CCC2 [1-20]
100%: efficacy (herbicidal action in percent) against Viola tricolor [1] | efficacy (herbicidal action in percent) against Stellaria media [2] | efficacy (herbicidal action in percent) against Veronica persica [3]

CSc1c(Br)c(C(=O)Nc2nnnn2C)cc2c1CCC2 [1-75]
100%: efficacy (herbicidal action in percent) against Viola tricolor [1] | efficacy (herbicidal action in percent) against Stellaria media [2] | efficacy (herbicidal action in percent) against Veronica persica [3]

Cn1nnnc1NC(=O)c1cc2c(c([S+](C)[O-])c1Cl)CCO2 (racemic) [1-70]
100%: efficacy (herbicidal action in percent) against Viola tricolor [1] | efficacy (herbicidal action in percent) against Stellaria media [2] | efficacy (herbicidal action in percent) against Veronica persica [3]

CSc1c(Cl)c(C(=O)Nc2ncnn2C)cc2c1CCC2 [2-18]
100%: efficacy (herbicidal action in percent) against Viola tricolor [1] | efficacy (herbicidal action in percent) against Stellaria media [2] | efficacy (herbicidal action in percent) against Veronica persica [3]

CSc1c(Cl)c(C(=O)Nc2nnc(C)o2)cc2c1CCC2 [4-18]
100%: efficacy (herbicidal action in percent) against Viola tricolor [1] | efficacy (herbicidal action in percent) against Stellaria media [2] | efficacy (herbicidal action in percent) against Veronica persica [3]

CCn1nnnc1NC(=O)c1cc2c(c(S(C)(=O)=O)c1Cl)CCC2 [1-26]
100%: efficacy (herbicidal action in percent) against Viola tricolor [1] | efficacy (herbicidal action in percent) against Stellaria media [2] | efficacy (herbicidal action in percent) against Veronica persica [3]

CSc1c(Cl)c(C(=O)Nc2nnnn2C)cc2c1CCO2 [1-69]
100%: efficacy (herbicidal action in percent) against Viola tricolor [1] | efficacy (herbicidal action in percent) against Stellaria media [2] | efficacy (herbicidal action in percent) against Veronica persica [3]

Cn1nnnc1NC(=O)c1cc2c(c([S+](C)[O-])c1Cl)CCCC2 (racemic) [1-52]
100%: efficacy (herbicidal action in percent) against Viola tricolor [1] | efficacy (herbicidal action in percent) against Stellaria media [2] | efficacy (herbicidal action in percent) against Veronica persica [3]

CCS(=O)(=O)c1c(Br)c(C(=O)Nc2nnnn2C)cc2c1CCC2 [1-80]
100%: efficacy (herbicidal action in percent) against Viola tricolor [1] | efficacy (herbicidal action in percent) against Stellaria media [2] | efficacy (herbicidal action in percent) against Veronica persica [3]

CSc1c(Cl)c(C(=O)Nc2nnnn2C)cc2c1CCC2 [1-18]
100%: efficacy (herbicidal action in percent) against Viola tricolor [1] | efficacy (herbicidal action in percent) against Stellaria media [2] | efficacy (herbicidal action in percent) against Veronica persica [3]

Cn1nnnc1NC(=O)c1cc2c(c(S(C)(=O)=O)c1Cl)OCC2 [1-65]
100%: efficacy (herbicidal action in percent) against Viola tricolor [1] | efficacy (herbicidal action in percent) against Stellaria media [2] | efficacy (herbicidal action in percent) against Veronica persica [3]

CCSc1c(Cl)c(C(=O)Nc2nnnn2CC)cc2c1CCC2 [1-27]
100%: efficacy (herbicidal action in percent) against Viola tricolor [1] | efficacy (herbicidal action in percent) against Stellaria media [2] | efficacy (herbicidal action in percent) against Veronica persica [3]

CC[S+]([O-])c1c(Br)c(C(=O)Nc2nnnn2C)cc2c1CCC2 (racemic) [1-79]
100%: efficacy (herbicidal action in percent) against Viola tricolor [1] | efficacy (herbicidal action in percent) against Stellaria media [2] | efficacy (herbicidal action in percent) against Veronica persica [3]

CSc1c(Cl)c(C(=O)Nc2nnnn2C)cc2c1C(=O)CC2 [1-30]
100%: efficacy (herbicidal action in percent) against Viola tricolor [1] | efficacy (herbicidal action in percent) against Stellaria media [2] | efficacy (herbicidal action in percent) against Veronica persica [3]

CCn1nnnc1NC(=O)c1cc2c(c([S+](C)[O-])c1Cl)CCC2 (racemic) [1-25]
100%: efficacy (herbicidal action in percent) against Viola tricolor [1] | efficacy (herbicidal action in percent) against Stellaria media [2] | efficacy (herbicidal action in percent) against Veronica persica [3]

Cn1nnnc1NC(=O)c1cc2c(c(S(C)(=O)=O)c1Br)CCC2 [1-77]
100%: efficacy (herbicidal action in percent) against Viola tricolor [1] | efficacy (herbicidal action in percent) against Stellaria media [2] | efficacy (herbicidal action in percent) against Veronica persica [3]

CSc1c(Cl)c(C(=O)Nc2nnnn2C)cc2c1OCC2 [1-63]
100%: efficacy (herbicidal action in percent) against Viola tricolor [1] | efficacy (herbicidal action in percent) against Stellaria media [2] | efficacy (herbicidal action in percent) against Veronica persica [3]

Cn1ncnc1NC(=O)c1cc2c(c(S(C)(=O)=O)c1Cl)CCC2 [2-20]
100%: efficacy (herbicidal action in percent) against Viola tricolor [1] | efficacy (herbicidal action in percent) against Stellaria media [2] | efficacy (herbicidal action in percent) against Veronica persica [3]

CCSc1c(Br)c(C(=O)Nc2nnnn2C)cc2c1CCC2 [1-78]
100%: efficacy (herbicidal action in percent) against Viola tricolor [1] | efficacy (herbicidal action in percent) against Stellaria media [2] | efficacy (herbicidal action in percent) against Veronica persica [3]

Cn1nnnc1NC(=O)c1cc2c(c([S+](C)[O-])c1Cl)CCC2 (racemic) [1-19]
100%: efficacy (herbicidal action in percent) against Viola tricolor [1] | efficacy (herbicidal action in percent) against Stellaria media [2] | efficacy (herbicidal action in percent) against Veronica persica [3]

CCSc1c(Cl)c(C(=O)Nc2nnnn2C)cc2c1CCC2 [1-21]
100%: efficacy (herbicidal action in percent) against Viola tricolor [1] | efficacy (herbicidal action in percent) against Stellaria media [2] | efficacy (herbicidal action in percent) against Veronica persica [3]
